# Experimental data reported in US11572590B2, “Methods for evaluating tumor cell spheroids using 3D microfluidic cell culture device” (Dana-Farber Cancer Institute, Inc., priority 2017, dated 2023).
# Like-named read-outs stand apart in the source and are kept apart here.
# How the values were obtained:
# Assay in all cases: SelectScreen Kinase Profiling, single point inhibition and IC50 for off-target kinases
# Assay type in all cases: biochemical
# off-target kinases [1] = molecular target: off-target kinases (Homo sapiens, UniProt Q02763, Y1108F); details: TEK (TIE2) Y1108F, LanthaScreen Binding
# Chain of off-target kinases (Homo sapiens, UniProt Q02763, Y1108F) (Q02763 23-1124 Y1108F): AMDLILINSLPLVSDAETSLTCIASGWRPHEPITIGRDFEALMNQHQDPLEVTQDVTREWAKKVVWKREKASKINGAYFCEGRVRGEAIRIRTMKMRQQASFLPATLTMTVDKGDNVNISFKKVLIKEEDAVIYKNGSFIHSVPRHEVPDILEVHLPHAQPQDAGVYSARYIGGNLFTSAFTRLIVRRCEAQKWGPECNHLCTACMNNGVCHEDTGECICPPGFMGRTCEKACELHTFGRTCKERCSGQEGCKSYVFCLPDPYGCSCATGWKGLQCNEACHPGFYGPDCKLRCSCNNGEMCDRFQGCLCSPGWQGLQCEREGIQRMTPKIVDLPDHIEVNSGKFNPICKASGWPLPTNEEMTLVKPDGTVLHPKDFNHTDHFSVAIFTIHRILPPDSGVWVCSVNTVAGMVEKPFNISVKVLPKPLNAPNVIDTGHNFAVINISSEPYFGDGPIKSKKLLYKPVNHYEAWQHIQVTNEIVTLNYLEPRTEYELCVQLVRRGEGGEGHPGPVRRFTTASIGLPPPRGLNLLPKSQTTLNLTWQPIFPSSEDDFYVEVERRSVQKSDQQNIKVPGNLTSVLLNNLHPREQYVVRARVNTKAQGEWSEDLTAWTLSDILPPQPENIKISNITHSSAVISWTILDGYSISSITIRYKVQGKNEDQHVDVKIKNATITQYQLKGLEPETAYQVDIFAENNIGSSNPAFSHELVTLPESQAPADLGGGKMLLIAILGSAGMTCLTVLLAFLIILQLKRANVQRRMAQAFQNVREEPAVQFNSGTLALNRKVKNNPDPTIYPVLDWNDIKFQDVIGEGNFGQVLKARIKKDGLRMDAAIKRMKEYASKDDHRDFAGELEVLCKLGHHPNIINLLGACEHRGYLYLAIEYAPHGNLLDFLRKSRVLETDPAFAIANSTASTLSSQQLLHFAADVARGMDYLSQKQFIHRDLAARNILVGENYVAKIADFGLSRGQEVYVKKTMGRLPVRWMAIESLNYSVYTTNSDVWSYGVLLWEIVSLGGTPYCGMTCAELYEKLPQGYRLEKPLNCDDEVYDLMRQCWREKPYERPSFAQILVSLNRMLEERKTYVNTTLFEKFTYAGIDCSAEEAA
# off-target kinases [2] = molecular target: off-target kinases (Homo sapiens, UniProt Q8N5S9); details: CAMKK1 (CAMKKA), LanthaScreen Binding
# Chain of off-target kinases (Homo sapiens, UniProt Q8N5S9) (Q8N5S9 whole entry): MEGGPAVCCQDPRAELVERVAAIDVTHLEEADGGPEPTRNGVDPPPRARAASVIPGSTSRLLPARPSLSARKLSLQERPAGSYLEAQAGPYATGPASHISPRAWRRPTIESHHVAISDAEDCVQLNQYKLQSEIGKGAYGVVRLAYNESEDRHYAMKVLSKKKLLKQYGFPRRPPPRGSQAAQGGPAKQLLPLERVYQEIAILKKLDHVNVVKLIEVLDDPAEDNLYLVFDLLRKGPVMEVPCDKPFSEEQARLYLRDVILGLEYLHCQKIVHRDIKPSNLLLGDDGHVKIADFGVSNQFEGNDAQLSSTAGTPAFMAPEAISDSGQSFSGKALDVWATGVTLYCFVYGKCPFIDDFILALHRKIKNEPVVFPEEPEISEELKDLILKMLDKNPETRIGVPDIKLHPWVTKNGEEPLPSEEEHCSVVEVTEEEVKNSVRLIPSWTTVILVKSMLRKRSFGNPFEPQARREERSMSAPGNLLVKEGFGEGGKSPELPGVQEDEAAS
# off-target kinases [3] = molecular target: off-target kinases (Homo sapiens, UniProt P53779); details: MAPK10 (JNK3)
# Chain of off-target kinases (Homo sapiens, UniProt P53779) (P53779 whole entry): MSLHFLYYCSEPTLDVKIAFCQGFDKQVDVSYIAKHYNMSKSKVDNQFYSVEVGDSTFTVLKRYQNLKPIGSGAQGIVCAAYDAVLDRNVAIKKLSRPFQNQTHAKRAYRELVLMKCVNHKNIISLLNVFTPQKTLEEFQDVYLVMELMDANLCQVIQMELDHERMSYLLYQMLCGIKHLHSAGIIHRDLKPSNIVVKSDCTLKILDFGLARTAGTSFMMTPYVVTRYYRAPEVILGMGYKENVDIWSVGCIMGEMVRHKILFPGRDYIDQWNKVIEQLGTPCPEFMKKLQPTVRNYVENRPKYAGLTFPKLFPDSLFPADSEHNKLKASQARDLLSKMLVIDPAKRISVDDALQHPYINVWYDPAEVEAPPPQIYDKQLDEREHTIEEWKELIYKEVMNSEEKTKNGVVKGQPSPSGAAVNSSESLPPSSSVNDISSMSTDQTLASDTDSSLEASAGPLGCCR
# off-target kinases [4] = molecular target: off-target kinases (Homo sapiens, UniProt P00519, Q252H); details: ABL1 Q252H, LanthaScreen Binding
# off-target kinases [5] = molecular target: off-target kinases (Homo sapiens, UniProt Q8TDX7); details: NEK7, ZLYTE, ATP Km app
# Chain of off-target kinases (Homo sapiens, UniProt Q8TDX7) (Q8TDX7 whole entry): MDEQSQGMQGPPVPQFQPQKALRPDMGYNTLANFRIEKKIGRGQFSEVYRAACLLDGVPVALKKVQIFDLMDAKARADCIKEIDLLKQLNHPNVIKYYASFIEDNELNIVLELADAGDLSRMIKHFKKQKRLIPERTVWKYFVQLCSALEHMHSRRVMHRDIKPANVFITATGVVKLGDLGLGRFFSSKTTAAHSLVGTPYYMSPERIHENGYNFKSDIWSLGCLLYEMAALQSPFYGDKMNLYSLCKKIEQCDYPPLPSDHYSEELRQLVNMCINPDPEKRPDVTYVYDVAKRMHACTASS
# off-target kinases [6] = molecular target: off-target kinases (Homo sapiens, UniProt Q16620); details: NTRK2 (TRKB), ZLYTE, ATP Km app
# Chain of off-target kinases (Homo sapiens, UniProt Q16620) (Q16620 32-822): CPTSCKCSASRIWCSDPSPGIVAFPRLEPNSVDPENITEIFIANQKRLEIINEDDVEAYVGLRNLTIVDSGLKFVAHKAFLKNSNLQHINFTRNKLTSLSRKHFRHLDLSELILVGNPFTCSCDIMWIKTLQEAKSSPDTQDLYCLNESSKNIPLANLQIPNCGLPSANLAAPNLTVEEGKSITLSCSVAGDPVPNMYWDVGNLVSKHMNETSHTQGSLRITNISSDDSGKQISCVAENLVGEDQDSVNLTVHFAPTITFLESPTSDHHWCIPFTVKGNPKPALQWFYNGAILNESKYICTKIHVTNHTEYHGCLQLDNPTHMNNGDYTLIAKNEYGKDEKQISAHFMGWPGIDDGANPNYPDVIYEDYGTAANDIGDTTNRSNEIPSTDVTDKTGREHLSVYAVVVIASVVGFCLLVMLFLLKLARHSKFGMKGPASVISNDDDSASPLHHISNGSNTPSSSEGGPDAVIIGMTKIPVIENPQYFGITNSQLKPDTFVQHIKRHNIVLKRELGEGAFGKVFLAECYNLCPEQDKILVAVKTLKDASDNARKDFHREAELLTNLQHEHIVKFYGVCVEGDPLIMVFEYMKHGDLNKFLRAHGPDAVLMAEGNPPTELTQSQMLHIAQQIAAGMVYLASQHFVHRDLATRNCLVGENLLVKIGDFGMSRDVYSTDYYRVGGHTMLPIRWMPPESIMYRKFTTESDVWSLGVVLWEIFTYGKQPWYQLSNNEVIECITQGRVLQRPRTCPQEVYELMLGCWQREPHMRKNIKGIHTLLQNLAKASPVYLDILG
# off-target kinases [7] = molecular target: T1, off-target kinases (Homo sapiens, UniProt Q96L34); details: MARK4, ATP Km app, ZLYTE
# T1 sequence (Q96L34 1-752): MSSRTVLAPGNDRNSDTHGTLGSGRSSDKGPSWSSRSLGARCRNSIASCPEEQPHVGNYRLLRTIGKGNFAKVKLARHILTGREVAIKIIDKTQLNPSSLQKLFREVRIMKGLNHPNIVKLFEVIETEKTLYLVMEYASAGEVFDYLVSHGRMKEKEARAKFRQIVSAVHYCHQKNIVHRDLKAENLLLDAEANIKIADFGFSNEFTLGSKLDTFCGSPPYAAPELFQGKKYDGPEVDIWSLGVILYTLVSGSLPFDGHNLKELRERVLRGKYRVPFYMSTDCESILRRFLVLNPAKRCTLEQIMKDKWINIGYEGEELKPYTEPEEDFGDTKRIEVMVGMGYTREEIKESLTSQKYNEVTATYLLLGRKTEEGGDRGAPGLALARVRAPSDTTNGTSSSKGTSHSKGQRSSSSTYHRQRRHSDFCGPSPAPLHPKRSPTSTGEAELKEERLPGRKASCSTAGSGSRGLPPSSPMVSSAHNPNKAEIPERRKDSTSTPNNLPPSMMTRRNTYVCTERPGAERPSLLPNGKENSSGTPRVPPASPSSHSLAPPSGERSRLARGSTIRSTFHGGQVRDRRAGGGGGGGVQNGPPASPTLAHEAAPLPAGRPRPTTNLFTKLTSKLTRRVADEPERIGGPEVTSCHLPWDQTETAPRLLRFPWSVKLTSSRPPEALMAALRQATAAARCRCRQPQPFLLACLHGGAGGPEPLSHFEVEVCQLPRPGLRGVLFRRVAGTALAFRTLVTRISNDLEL
smiles,measurement,setting,value
"N#Cc1cc(-c2ncnc(Nc3ccc(N4CCN(C5COC5)CC4)cc3)n2)ccc1OC1CCOCC1 [Compound 1, 5-(4-((4-(4-(oxetan-3-yl)piperazin-1-yl)phenyl)amino)-1,3,5-triazin-2-yl)-2-((tetrahydro-2H-pyran-4-yl)oxy)benzonitrile]",inhibition,off-target kinases [1]; read-out: % Inhibition 1,53%
same,inhibition,off-target kinases [1]; read-out: % Inhibition 2,52%
same,inhibition,off-target kinases [1]; read-out: % Inhibition Avg,53%
same,inhibition,off-target kinases [2]; read-out: % Inhibition 1,2%
same,inhibition,off-target kinases [2]; read-out: % Inhibition 2,-1%
same,inhibition,off-target kinases [2]; read-out: % Inhibition Avg,0%
same,inhibition,"off-target kinases [3]; LanthaScreen Binding, read-out: % Inhibition 1",48%
same,inhibition,"off-target kinases [3]; LanthaScreen Binding, read-out: % Inhibition 2",49%
same,inhibition,"off-target kinases [3]; LanthaScreen Binding, read-out: % Inhibition Avg",49%
same,inhibition,"off-target kinases [3]; ZLYTE, ATP 100, read-out: % Inhibition 1",20%
same,inhibition,"off-target kinases [3]; ZLYTE, ATP 100, read-out: % Inhibition 2",21%
same,inhibition,"off-target kinases [3]; ZLYTE, ATP 100, read-out: % Inhibition Avg",20%
same,inhibition,off-target kinases [4]; read-out: % Inhibition 1,52%
same,inhibition,off-target kinases [4]; read-out: % Inhibition 2,41%
same,inhibition,off-target kinases [4]; read-out: % Inhibition Avg,46%
same,inhibition,off-target kinases [5]; read-out: % Inhibition 1,5%
same,inhibition,off-target kinases [5]; read-out: % Inhibition 2,2%
same,inhibition,off-target kinases [5]; read-out: % Inhibition Avg,3%
same,inhibition,off-target kinases [6]; read-out: % Inhibition 1,5%
same,inhibition,off-target kinases [6]; read-out: % Inhibition 2,7%
same,inhibition,off-target kinases [6]; read-out: % Inhibition Avg,6%
same,inhibition,off-target kinases [7]; read-out: % Inhibition 1,96%
same,inhibition,off-target kinases [7]; read-out: % Inhibition 2,93%
same,inhibition,off-target kinases [7]; read-out: % Inhibition Avg,95%
